Test results taken from patent US12371454B2, “Cyclic peptide compound having Kras inhibitory action” (priority 2019, dated 2025).
pIC50: −log10 of the molar value. Starred links: 1 amine or outer side, 2 acyl side, 3 side chain; linkers in the order of their positions; H or OH if unused. Positions of bridges follow the written chain, without caps; N, C: chain ends. Non-standard residues stand in square brackets, D forms with d. Residues, ends and D or L forms follow the SMILES beside them. *: point of attachment. hPhe(3-Cl-4-CF3) = N[C@@H](CCc1ccc(C(F)(F)F)c(Cl)c1)C(=O)O; hPhe(3-F,4-CF3) = N[C@@H](CCc1ccc(C(F)(F)F)c(F)c1)C(=O)O; NMePhe(3-CN) = CN[C@@H](Cc1cccc(C#N)c1)C(=O)O; NMePhe(4-Cl) = CN[C@@H](Cc1ccc(Cl)cc1)C(=O)O; NMePhe(4-Me) = CN[C@@H](Cc1ccc(C)cc1)C(=O)O; NMedβ3hAla = C[C@H](CC(=O)[*:2])N(C)[*:1]; NMeGly(cPent) = CN[C@H](C(=O)O)C1CCCC1; NMeAla(cPr) = CN[C@@H](CC1CC1)C(=O)O; NMe3Pal = CN[C@@H](Cc1cccnc1)C(=O)O; NMeCha = CN[C@@H](CC1CCCCC1)C(=O)O; NMeChg = CN[C@H](C(=O)O)C1CCCCC1; NMeI = CC[C@H](C)[C@H](NC)C(=O)O; NMeD = CN[C@@H](CC(=O)O)C(=O)O; NMeL = CN[C@@H](CC(C)C)C(=O)O; NMeV = CN[C@H](C(=O)O)C(C)C; dIva = CC[C@@](C)(N)C(=O)O; NMeS = CN[C@@H](CO)C(=O)O; NMeA = CN[C@@H](C)C(=O)O; Piperidide = C1CCN(*)CC1; Ac5c = NC1(C(=O)O)CCCC1; Aze = O=C(O)[C@@H]1CCN1; Isopentyl = CC(C)CC*; Sar = CNCC(=O)O

How the values were obtained:
[1] = molecular target: T1, Kras and SOS1 (biotin-tagged human Kras loaded with GDP, His-tagged human SOS1) (Homo sapiens, UniProt P01116, G12D); test: Protein-protein interaction inhibition between Kras and SOS1 (KrasGl2D-SOS PPI) using AlphaScreen; assay type: binding; conditions: AlphaScreen; biotin-tagged human Kras loaded with GDP, His-tagged human SOS1; read-out: KRAS G12D-SOS PPI IC50
T1 construct: made in house; host or cells: E. coli (stated for Kras only)
T1 sequence (P01116 1-188 isoform P01116-2 G12D): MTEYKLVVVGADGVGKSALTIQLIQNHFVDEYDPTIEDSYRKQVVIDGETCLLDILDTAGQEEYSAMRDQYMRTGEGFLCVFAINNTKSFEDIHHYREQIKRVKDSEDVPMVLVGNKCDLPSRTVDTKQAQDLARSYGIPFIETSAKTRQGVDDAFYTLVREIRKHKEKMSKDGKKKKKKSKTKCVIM
Outline: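 AlphaScreen format: Ni donor beads capture His-SOS1, streptavidin acceptor beads capture biotinylated Kras (E. coli-expressed, GDP-loaded post-purification). Excite 680 nm, read 520-620 nm.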

[2] = tested on: Human pancreatic cancer cell line AsPC-1; test: Measurement of AsPC-1 cell growth inhibition (AsPC-1 CGI); assay type: cell-based; conditions: 96 h
Outline: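 AsPC-1 cells in 15% FBS RPMI-1640 were exposed to test compound for 96 hours at 37° C, with CellTiter-Glo as endpoint.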

Question: What does the source list for `CC[C@H](C)[C@@H]1NC(=O)[C@H](CC(C)C)N(C)C(=O)C[C@@H](C)N(C)C(=O)[C@H](C(C)C)N(C)C(=O)[C@@](C)(CC)NC(=O)[C@@H]2CCCN2C(=O)[C@H](CCc2ccc(C(F)(F)F)c(Cl)c2)NC(=O)CN(C)C(=O)[C@H](CC2CCCCC2)N(C)C(=O)CN(C)C(=O)CN(C)C1=O` [Compound 223] (cyclo(I[Sar][Sar][NMeCha][Sar][hPhe(3-Cl-4-CF3)]P[dIva][NMeV][NMedβ3hAla][NMeL]))?
Answer: pIC50 [1]: 7.74; pIC50 [2]: 6.30 to 7.00

Question: How did the pIC50 [1] turn out when `CC[C@H](C)[C@@H]1NC(=O)[C@H](CC(C)C)N(C)C(=O)C[C@@H](C(=O)N2CCCCC2)N(C)C(=O)[C@H](C(C)C)N(C)C(=O)C2(CCCC2)NC(=O)[C@@H]2CCCN2C(=O)[C@H](CCc2ccc(C(F)(F)F)c(F)c2)NC(=O)CN(C)C(=O)[C@H](Cc2ccc(Cl)cc2)N(C)C(=O)CN(C)C(=O)CN(C)C1=O` [Compound 229] ([NMeL]I[Sar][Sar][NMePhe(4-Cl)][Sar][hPhe(3-F,4-CF3)]P[Ac5c][NMeV][NMeD]-Piperidide; lactam N-11) was run?
Answer: 8.17

Question: What about the pIC50 [2] of the same compound?
Answer: 6.30 to 7.00

Question: How did the pIC50 [1] turn out when `CC[C@H](C)[C@@H]1NC(=O)[C@H](CC(C)C)N(C)C(=O)C[C@@H](C(=O)N2CCCCC2)N(C)C(=O)[C@H](C2CCCCC2)N(C)C(=O)C2(CCCC2)NC(=O)[C@@H]2CCCN2C(=O)[C@H](CCc2ccc(C(F)(F)F)c(Cl)c2)NC(=O)CN(C)C(=O)[C@H](CC2CC2)N(C)C(=O)CN(C)C(=O)CN(C)C1=O` [Compound 234] ([NMeL]I[Sar][Sar][NMeAla(cPr)][Sar][hPhe(3-Cl-4-CF3)]P[Ac5c][NMeChg][NMeD]-Piperidide; lactam N-11) was run?
Answer: 8.68

Question: What about the pIC50 [2] of the same compound?
Answer: < 6.30

Question: What does the source list for `CC[C@H](C)[C@@H]1NC(=O)[C@H](CC(C)C)N(C)C(=O)C[C@@H](C)N(C)C(=O)[C@H](C(C)C)N(C)C(=O)C2(CCCC2)NC(=O)[C@@H]2CCCN2C(=O)[C@H](CCc2ccc(C(F)(F)F)c(Cl)c2)NC(=O)CN(C)C(=O)[C@H](Cc2cccc(C#N)c2)N(C)C(=O)CN(C)C(=O)CN(C)C1=O` [Compound 238] (cyclo([Ac5c][NMeV][NMedβ3hAla][NMeL]I[Sar][Sar][NMePhe(3-CN)][Sar][hPhe(3-Cl-4-CF3)]P))?
Answer: pIC50 [1]: 7.92; pIC50 [2]: 6.30 to 7.00

Question: `CC[C@H](C)[C@@H]1NC(=O)[C@H](CC(C)C)N(C)C(=O)C[C@@H](C(=O)N(C)C)N(C)C(=O)[C@H]([C@@H](C)CC)N(C)C(=O)C2(CCCC2)NC(=O)[C@H](Cc2cccnc2)N(C)C(=O)[C@H](CCc2ccc(C(F)(F)F)c(Cl)c2)NC(=O)CN(C)C(=O)[C@H](Cc2ccc(C)cc2)N(C)C(=O)[C@@H]2CCN2C(=O)[C@H](C)N(C)C1=O` [Compound 243] ([NMeL]I[NMeA][Aze][NMePhe(4-Me)][Sar][hPhe(3-Cl-4-CF3)][NMe3Pal][Ac5c][NMeI][NMeD]-NMe2; lactam N-11) was tested. Which pIC50 [1] did it give?
Answer: 9.37

Question: And the pIC50 [2]?
Answer: 7.30 to 7.70

Question: With `CC[C@H](C)[C@@H]1NC(=O)[C@H](C)N(C)C(=O)C[C@@H](C(=O)N2CCCCC2)N(C)C(=O)[C@H](C2CCCC2)N(C)C(=O)C2(CCCC2)NC(=O)[C@@H]2CCCN2C(=O)[C@H](CCc2ccc(C(F)(F)F)c(Cl)c2)NC(=O)CN(C)C(=O)[C@H](CC2CCCCC2)N(C)C(=O)CN(C)C(=O)CN(C)C1=O` [Compound 246] ([NMeA]I[Sar][Sar][NMeCha][Sar][hPhe(3-Cl-4-CF3)]P[Ac5c][NMeGly(cPent)][NMeD]-Piperidide; lactam N-11) as the compound, how does the pIC50 [1] read?
Answer: 9.52

Question: What about the pIC50 [2] of the same compound?
Answer: 7.00 to 7.30

Question: How did the pIC50 [1] turn out when `CC[C@H](C)[C@@H]1NC(=O)[C@H](CC(C)C)N(C)C(=O)C[C@@H](C(=O)N(C)C)N(C)C(=O)[C@H](C2CCCC2)N(C)C(=O)C2(CCCC2)NC(=O)[C@H](COCCC(C)C)N(C)C(=O)[C@H](CCc2ccc(C(F)(F)F)c(Cl)c2)NC(=O)CN(C)C(=O)[C@H](CC2CCCCC2)N(C)C(=O)[C@@H]2CCN2C(=O)[C@H](C)N(C)C1=O` [Compound 250] ([NMeL]I[NMeA][Aze][NMeCha][Sar][hPhe(3-Cl-4-CF3)][NMeS](Isopentyl)[Ac5c][NMeGly(cPent)][NMeD]-NMe2; lactam N-11) was run?
Answer: 8.01

Question: What about the pIC50 [2] of the same compound?
Answer: 6.30 to 7.00
